Measurements reported in US20250154126A1, “CRYSTALLINE FORM OF SULFUR-CONTAINING ISOINDOLINE DERIVATIVE” (JIANGSU HENGRUI PHARMACEUTICALS CO., LTD., priority 2022, published 2025).

System: NCI-H929 xenograft tumor
Experiment: Pharmacodynamic test: NCI-H929 xenograft tumor in CB-17 SCID mice
Format: in vivo
Conditions: for Number of remaining animals/group: 1 mg/kg qd/11 d, oral
Method: This experiment was performed to evaluate the inhibition effect of the compound of Example 1 and the control example CC-92480 on the growth of human multiple myeloma cell NCI-H929 xenograft tumor in CB-17 SCID mice.
Solutions of the compound of Example 1 and the control example CC-92480 were prepared with 5% DMSO+20% PEG400+70% (10% TPGS)+5% (1% HPMC K100LV).
Thirty CB-17 SCID female mice, purchased from Beijing Vital River Laboratory Animal Technology Co., Ltd. (certificate No. 20170011006049, SCXK (Shanghai) 2017-0011), weighing about 19 g at the time of purchase, were bred at 5 mice/cage (in a 12/12 hour light/dark cycle, at a constant temperature of 23±1° C. and humidity of 50%-60%) and had free access to food and water.
After adaptive feeding, the CB-17 SCID mice were grouped as follows:
NCI-H929 cells in a logarithmic growth phase were inoculated subcutaneously into the right flank of 30 female CB-17 SCID mice at 5×10^6 cells/mouse/100 μL (containing […] of Matrigel). After 10 days, when the tumor volume of the tumor-bearing mice reached about 200 mm^3, the mice were randomly divided into 3 groups according to the tumor volume and body weight: vehicle control group, CC-92480-1 mpk, compound of Example 1-1 mpk, with […]. The day of grouping was set as Day 0 (DO), and intragastric administration was performed once a day for 11 days (Table 2). For the tumor-bearing mice, the tumor volume was measured with a vernier caliper and the body weight was measured with a balance twice a week, and the data were recorded.
The tumor volume (V) was calculated as follows: V=1/2×a×b^2, where a and b represent length and width, respectively.
The relative tumor proliferation rate T/C (%)=(T−T0)/(C−C0)×100(%), where T and C are the tumor volume of animals at the end of the experiment in the treatment group and control group, respectively; T0 and C0 are the tumor volume of animals at the beginning of the experiment in the treatment group and control group, respectively. […]

Structure (SMILES): N#Cc1ccc(N2CCC(Sc3ccc(COc4cccc5c4CN([C@H]4CCC(=O)NC4=O)C5=O)cn3)CC2)c(F)c1 [Example 1, (S)-4-(4-((5-(((2-(2,6-dioxopiperidin-3-yl)-1-oxoisoindolin-4-yl)oxy)methyl)pyridin-2-yl)thio)piperidin-1-yl)-3-fluorobenzonitrile]
- influence on the body weight of mice (1 mg/kg qd, 11 days, CB-17 SCID mice): no influence
- Number of remaining animals/group: 7/7

Structure (SMILES): N#Cc1ccc(N2CCN(Cc3ccc(COc4cccc5c4CN([C@H]4CCC(=O)NC4=O)C5=O)cc3)CC2)c(F)c1 [CC-92480, reference compound]
- Number of remaining animals/group: 7/7
